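Dose response: 5 concentrations. Exposure: 48 h. Format: 96-well plates. Endpoint: linear interpolation; highest concentration if not reached. Definition used: TGI = concentration required for complete inhibition of growth.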
Legend:
Experiment in all cases: NCI tumour cell line growth inhibition, 48 h
CAKI-1 renal = tested on: CAKI-1 renal
NCI-H226 lung = tested on: NCI-H226 lung
U251 CNS = tested on: U251 CNS
SK-MEL-2 melanoma = tested on: SK-MEL-2 melanoma
M14 melanoma = tested on: M14 melanoma
SNB-19 CNS = tested on: SNB-19 CNS
LOX IMVI melanoma = tested on: LOX IMVI melanoma
OVCAR-3 ovarian = tested on: OVCAR-3 ovarian
DU-145 prostate = tested on: DU-145 prostate
RXF 393 renal = tested on: RXF 393 renal
ACHN renal = tested on: ACHN renal
SF-539 CNS = tested on: SF-539 CNS
T-47D breast = tested on: T-47D breast
OVCAR-4 ovarian = tested on: OVCAR-4 ovarian
RPMI-8226 leukemia = tested on: RPMI-8226 leukemia
K-562 leukemia = tested on: K-562 leukemia
HS 578T breast = tested on: HS 578T breast
UO-31 renal = tested on: UO-31 renal
HOP-62 NSCLC = tested on: HOP-62 NSCLC
MDA-MB-231 breast = tested on: MDA-MB-231 breast
BT-549 breast = tested on: BT-549 breast
SR leukemia = tested on: SR leukemia
MCF7 breast = tested on: MCF7 breast
HL-60(TB) leukemia = tested on: HL-60(TB) leukemia
NCI-H522 lung = tested on: NCI-H522 lung
MALME-3M melanoma = tested on: MALME-3M melanoma
786-0 renal = tested on: 786-0 renal
UACC-257 melanoma = tested on: UACC-257 melanoma
HT29 colon = tested on: HT29 colon
TK-10 renal = tested on: TK-10 renal
NCI-H23 lung = tested on: NCI-H23 lung
NCI/ADR-RES ovarian = tested on: NCI/ADR-RES ovarian
SF-295 CNS = tested on: SF-295 CNS
MDA-MB-435 = tested on: MDA-MB-435
UACC-62 melanoma = tested on: UACC-62 melanoma
OVCAR-5 ovarian = tested on: OVCAR-5 ovarian
OVCAR-8 ovarian = tested on: OVCAR-8 ovarian
HCC-2998 colon = tested on: HCC-2998 colon
SNB-75 CNS = tested on: SNB-75 CNS
SN12C renal = tested on: SN12C renal
KM12 colon = tested on: KM12 colon
A498 renal = tested on: A498 renal
PC-3 prostate = tested on: PC-3 prostate
SF-268 CNS = tested on: SF-268 CNS
SK-MEL-5 melanoma = tested on: SK-MEL-5 melanoma
MDA-N = tested on: MDA-N
MOLT-4 leukemia = tested on: MOLT-4 leukemia
SK-MEL-28 melanoma = tested on: SK-MEL-28 melanoma
SW-620 colon = tested on: SW-620 colon
HCT-15 colon = tested on: HCT-15 colon
EKVX NSCLC = tested on: EKVX NSCLC
HCT-116 colon = tested on: HCT-116 colon
IGROV1 ovarian = tested on: IGROV1 ovarian
NCI-H460 lung = tested on: NCI-H460 lung
SK-OV-3 ovarian = tested on: SK-OV-3 ovarian
COLO 205 colon = tested on: COLO 205 colon
A549 NSCLC = tested on: A549 NSCLC
HOP-92 NSCLC = tested on: HOP-92 NSCLC
CCRF-CEM leukemia = tested on: CCRF-CEM leukemia

## O=C(/C=C1\C[C@H]2C=Nc3ccccc3C(=O)N2C1)NCCCNC(=O)/C=C1\C[C@H]2C=Nc3ccccc3C(=O)N2C1
CAKI-1 renal
  TGI: 27.2 µM
NCI-H226 lung
  TGI: 36.3 µM
U251 CNS
  TGI: 26.6 µM
SK-MEL-2 melanoma
  TGI: 33.6 µM
M14 melanoma
  TGI: 28 µM
SNB-19 CNS
  TGI: 31.4 µM
LOX IMVI melanoma
  TGI: 22.6 µM
OVCAR-3 ovarian
  TGI: 31.3 µM
DU-145 prostate
  TGI: 35.9 µM
RXF 393 renal
  TGI: 27.9 µM
ACHN renal
  TGI: 28.1 µM
SF-539 CNS
  TGI: 34.9 µM
T-47D breast
  TGI: 60.1 µM
OVCAR-4 ovarian
  TGI: 35.6 µM
RPMI-8226 leukemia
  TGI: 40 µM
K-562 leukemia
  TGI: 29.4 µM
HS 578T breast
  TGI: > 100 µM
UO-31 renal
  TGI: 28.4 µM
HOP-62 NSCLC
  TGI: 35.8 µM
MDA-MB-231 breast
  TGI: 29.7 µM
BT-549 breast
  TGI: 30.3 µM
SR leukemia
  TGI: 4.62 µM
MCF7 breast
  TGI: 42 µM
HL-60(TB) leukemia
  TGI: 32 µM
NCI-H522 lung
  TGI: 4.21 µM
MALME-3M melanoma
  TGI: 30 µM
786-0 renal
  TGI: 10.9 µM
UACC-257 melanoma
  TGI: 30.3 µM
HT29 colon
  TGI: 32.2 µM
TK-10 renal
  TGI: 34 µM
NCI-H23 lung
  TGI: 30.4 µM
NCI/ADR-RES ovarian
  TGI: 48.4 µM
SF-295 CNS
  TGI: 36.9 µM
MDA-MB-435
  TGI: 34.3 µM
UACC-62 melanoma
  TGI: 29.3 µM
OVCAR-5 ovarian
  TGI: 36.2 µM
OVCAR-8 ovarian
  TGI: 33.2 µM
HCC-2998 colon
  TGI: 35.1 µM
SNB-75 CNS
  TGI: 31.1 µM
SN12C renal
  TGI: 37.9 µM
KM12 colon
  TGI: 31.2 µM
A498 renal
  TGI: 31.5 µM
PC-3 prostate
  TGI: 31.4 µM
SF-268 CNS
  TGI: 30.8 µM
SK-MEL-5 melanoma
  TGI: 30.2 µM
MDA-N
  TGI: 32.3 µM
MOLT-4 leukemia
  TGI: 7.37 µM
SK-MEL-28 melanoma
  TGI: 35.5 µM
SW-620 colon
  TGI: 28.3 µM
HCT-15 colon
  TGI: 36.9 µM
EKVX NSCLC
  TGI: 38 µM
HCT-116 colon
  TGI: 30.5 µM
IGROV1 ovarian
  TGI: 31 µM
NCI-H460 lung
  TGI: 36.2 µM
SK-OV-3 ovarian
  TGI: 36.4 µM
COLO 205 colon
  TGI: 26.2 µM
A549 NSCLC
  TGI: 46.5 µM
HOP-92 NSCLC
  TGI: 35.4 µM

## Cc1cc(C)c2c(=O)n(CN3CCC(C#N)(c4ccccc4)CC3)sc2n1
CAKI-1 renal
  TGI: > 100 µM
NCI-H226 lung
  TGI: > 100 µM
U251 CNS
  TGI: > 100 µM
SK-MEL-2 melanoma
  TGI: > 100 µM
M14 melanoma
  TGI: > 100 µM
SNB-19 CNS
  TGI: > 100 µM
LOX IMVI melanoma
  TGI: 69.9 µM
OVCAR-3 ovarian
  TGI: > 100 µM
DU-145 prostate
  TGI: > 100 µM
RXF 393 renal
  TGI: 48 µM
ACHN renal
  TGI: 44.1 µM
SF-539 CNS
  TGI: 98.3 µM
T-47D breast
  TGI: > 100 µM
CCRF-CEM leukemia
  TGI: > 100 µM
OVCAR-4 ovarian
  TGI: 88.8 µM
K-562 leukemia
  TGI: > 100 µM
HS 578T breast
  TGI: > 100 µM
UO-31 renal
  TGI: 34.1 µM
HOP-62 NSCLC
  TGI: > 100 µM
MDA-MB-231 breast
  TGI: > 100 µM
BT-549 breast
  TGI: > 100 µM
SR leukemia
  TGI: > 100 µM
MCF7 breast
  TGI: > 100 µM
HL-60(TB) leukemia
  TGI: 49.7 µM
NCI-H522 lung
  TGI: 31.3 µM
MALME-3M melanoma
  TGI: 46.5 µM
786-0 renal
  TGI: 52.6 µM
UACC-257 melanoma
  TGI: 44.6 µM
HT29 colon
  TGI: > 100 µM
TK-10 renal
  TGI: 63.6 µM
NCI-H23 lung
  TGI: > 100 µM
NCI/ADR-RES ovarian
  TGI: > 100 µM
SF-295 CNS
  TGI: > 100 µM
MDA-MB-435
  TGI: 65.5 µM
UACC-62 melanoma
  TGI: > 100 µM
OVCAR-5 ovarian
  TGI: 90.9 µM
OVCAR-8 ovarian
  TGI: 81.5 µM
SNB-75 CNS
  TGI: 76.1 µM
SN12C renal
  TGI: > 100 µM
KM12 colon
  TGI: > 100 µM
A498 renal
  TGI: > 100 µM
PC-3 prostate
  TGI: > 100 µM
SF-268 CNS
  TGI: > 100 µM
SK-MEL-5 melanoma
  TGI: > 100 µM
MDA-N
  TGI: 80.3 µM
MOLT-4 leukemia
  TGI: > 100 µM
SK-MEL-28 melanoma
  TGI: > 100 µM
SW-620 colon
  TGI: 67.7 µM
HCT-15 colon
  TGI: > 100 µM
EKVX NSCLC
  TGI: > 100 µM
HCT-116 colon
  TGI: > 100 µM
IGROV1 ovarian
  TGI: > 100 µM
NCI-H460 lung
  TGI: > 100 µM
SK-OV-3 ovarian
  TGI: > 100 µM
COLO 205 colon
  TGI: > 100 µM
A549 NSCLC
  TGI: > 100 µM
HOP-92 NSCLC
  TGI: > 100 µM
